For the test, the target named is T1, (Homo sapiens, UniProt P03372).
T1 sequence (P03372 1-595): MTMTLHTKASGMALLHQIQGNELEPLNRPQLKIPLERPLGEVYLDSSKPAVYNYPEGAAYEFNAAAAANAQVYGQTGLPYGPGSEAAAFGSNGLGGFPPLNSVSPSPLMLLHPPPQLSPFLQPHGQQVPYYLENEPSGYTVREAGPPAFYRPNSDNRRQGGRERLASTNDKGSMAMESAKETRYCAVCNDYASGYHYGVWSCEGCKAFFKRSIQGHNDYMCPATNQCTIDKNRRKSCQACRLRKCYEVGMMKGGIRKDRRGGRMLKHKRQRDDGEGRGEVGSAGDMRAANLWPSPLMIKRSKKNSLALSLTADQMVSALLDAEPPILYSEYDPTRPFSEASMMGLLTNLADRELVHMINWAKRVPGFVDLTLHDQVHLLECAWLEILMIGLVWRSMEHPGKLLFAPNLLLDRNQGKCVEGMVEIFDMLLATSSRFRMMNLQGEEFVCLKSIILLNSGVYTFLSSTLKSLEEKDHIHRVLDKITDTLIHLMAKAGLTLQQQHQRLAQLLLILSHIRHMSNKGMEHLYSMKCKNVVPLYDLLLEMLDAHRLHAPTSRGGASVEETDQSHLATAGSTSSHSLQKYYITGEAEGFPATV
Nature of the test: in vitro competitive binding assay (radio-ligand displacement), estradiol binding activity.

[1] abbreviates: Table 1, unsubstituted reference monomers, displacement of radio-ligand from ERR-α, read-out: IC50.

Where two headings read alike, the source gives them in different places. A value given as a limit tells only on which side of the number the result lay.

Procedure: The (IC50) of a particular substance can be determined using conventional competition binding assays. In this type of assay, a single concentration of radioligand (such as an agonist) is used in every assay tube. The ligand is used at a low concentration, usually at or below its Kd value. The level of specific binding of the radioligand is then determined in the presence of a range of concentrations of other competing non-radioactive compounds (usually antagonists), in order to measure the potency with which they compete for the binding of the radioligand. Competition curves can also be computer-fitted to a logistic function as described under direct fit.
IC50 binding concentrations for the alpha in vitro estradiol receptors were tested. Four separate sets of tests were run using a standard competitive binding assay. Samples were dissolved in either ethanol or DMSO. The various compounds were then tested at up to seven different concentrations for each test compound. Each of those tests was run in triplicate. Tests were conducted by displacement of a radio-ligand. For each set of tests a 17P-estradiol control sample was run to ensure proper binding of the natural hormone under the test conditions. Specifically, the IC50 values described herein were determined from in-vitro experiments of the compound binding to ERR-α.

For `COC(=O)CCC(C)(c1ccc(O)cc1)c1ccc(O)cc1` [Reference ID 10, Methyl 4,4-bis(4-hydroxyphenyl)pentanoate], under setting [1], the IC50 was found to be 18.7 µM.

On to `CC(C)(c1ccc(O)cc1)c1ccc(C(C)(C)c2ccc(O)cc2)cc1` [Reference ID 7, 4,4′-(1,4-phenylenebis(propane-2,2-diyl))diphenol], for which the concentration for half-maximal inhibition (IC50) worked out at 3.92 µM. `CCC(CC)(c1ccc(O)cc1)c1ccc(O)cc1` [Reference ID 9, 4,4′-(pentane-3,3-diyl)diphenol]: the IC50 under setting [1] was found to be 0.0056 µM. Turning to `COc1cc(C(C)(C)c2ccc(O)c(OC)c2)ccc1O` [Example 1A, 4,4′-(propane-2,2-diyl)bis(2-methoxyphenol)], the 50% inhibitory concentration (IC50) (Table 2, substituted monomers, displacement of radio-ligand from ERR-α, read-out: IC50) is over 250 µM. Also, the estradiol binding activity entry (with the LBD cavity of ERR-α, in words) is recorded as “reduced or no detectable estradiol binding activity”. As to `Cc1cc(C2(c3ccc(O)c(C)c3)CCCCC2)ccc1O` [Reference ID 2, 4,4′-(cyclohexane-1,1-diyl)bis(2-methylphenol)], the half-maximal inhibitory concentration (IC50) under setting [1] was 1.27 µM.

(Values after patent US20150338423A1, “METHODS FOR DETERMINING RELATIVE BINDING ENERGY OF MONOMERS AND METHODS OF USING THE SAME” (SABIC Global Technologies B.V., priority 2014, published 2015).)
